Source: a melting point compilation (Tetko et al.; mined from patent text by program, amines drawn as free bases though some values may be those of a salt)

SMILES | melting point [°C]
O=C1C(=O)c2c(nc3ccc(Cl)cn23)-c2cccc(Cl)c21 | > 260
c1ccc(Nc2ccc(-c3ccc(N(c4ccccc4)c4ccccc4)cc3)cc2)cc1 | 168
COc1ccc2c(c1)CC(C(N)=O)N2C(C)=O (stereo unspecified) | 196 to 197
CCOC(=O)C(=C1SC(=S)N(CC(=O)O)C1=O)c1csc(NC(=O)c2ccccc2)n1 | 278 to 281
c1ccc(C(c2ccccc2)N2CCN(CCCSc3ccc4nncn4n3)CC2)cc1 | 79 to 80
O=C(c1ccc(S(=O)(=O)c2ccc3cc(Cl)ccc3c2)cc1)N1CCN(c2ccncc2)CC1 | 267 to 269
CCc1noc(-c2cn(-c3ncc(Cl)cc3Cl)cn2)n1 | 132 to 133
O=C(CC1CCN(CCn2c(=O)[nH]c3ccccc32)CC1)c1ccc(F)cc1 | 181
CC(C)C[C@H](NC(=O)OC(C)(C)C)C(=O)N[C@@H](C(C)C)[C@@H](O)c1c(-c2ccc(F)cc2)c1=O | 90 to 96
Cc1c2ccc(-c3nn(C(C)c4oc5ccccc5c(=O)c4-c4cccc(F)c4)c4ncnc(N)c34)cc2nn1C (stereo unspecified) | 269 to 274
O=C(NCCc1cccc2ccccc12)C(F)(F)F | 79 to 80
CC(O)c1cnc(C(F)(F)F)nc1 (stereo unspecified) | 43 to 45
CN(Cc1ccccc1)c1nc(=O)c2cccnc2s1 | 112 to 113
CC(=O)Nc1cc(C)c(C)cc1OC(C)=O | 156 to 158
Nc1ccc2c(c1)C(=O)C1(CCOC1=O)S2 (stereo unspecified) | 187 to 190
Cc1ccccc1C(N)=CC#N | 111 to 113
CN(C(=O)CN(O)C(N)=O)c1cccc(OCc2ccccc2)c1 | 162 to 163
O=C(CCc1cccc(Oc2ccccc2)c1)c1ccc[nH]1 | 75 to 76
Cc1csc(C)c1C(=O)O | 164 to 165
Nc1ccc(Cc2ccc(CS(=O)(=O)NCc3ccccc3)cc2)cc1 | 115 to 118
CC(c1cccnc1)N(c1ccc(F)cc1)S(C)(=O)=O (stereo unspecified) | 82 to 85
CC(=O)N1CCC(c2nc3n(C4CCCC4)[nH]c(C)c-3c(=O)n2)CC1 | 176 to 178
CC1=C(C)c2cc(Br)ccc2Sc2ccccc21 | 108 to 111
CNC(=O)C(=O)CCCCCCS(=O)(=O)c1ccc(-c2ccccc2)cc1 | 134 to 135
CC(=O)OC1CSC(Oc2ccc(C)nc2-c2ccncc2)C(OC(C)=O)C1OC(C)=O (stereo unspecified) | 140 to 144
NC(=O)c1sc2nc(N3CCC(NCC(O)c4ccc5c(c4)OCO5)CC3)cc(C(F)(F)F)c2c1N (stereo unspecified) | 232 to 234

SMILES | melting point [°C]
COC(=O)c1cc(C23CC4CC(CC(C4)C2)C3)c(O)cc1O | 167 to 169
Cc1c(N2C[C@@H](NC(=O)OC(C)(C)C)C3(CC3)C2)c(F)c(N)c2c(=O)c(C(=O)O)cn(C3CC3)c12 | 218 to 219
O=C(N[C@H](Cc1cccc(Oc2ccccc2)c1)[C@@H](O)c1ccc(F)cc1)c1ccc(F)c2ccccc12 (racemic) | 120 to 121
Cc1cccc(C)c1N(C(=O)CCl)C1=CCCCC1 | 78
O=[N+]([O-])c1ccc(N2CCCC2)c(S(=O)(=O)O)c1 | 178 to 179
CC(C)CC(SCc1ccccc1)c1c(O)cc(-c2ccccc2)oc1=O (stereo unspecified) | 153 to 155
N#Cc1ccccc1N1CCN(Cc2nc3ccccc3[nH]2)CC1 | 236 to 237
CC(C)(C)c1ccc2c(c1)CCC1=C2CCC(=O)N1 | 265 to 268
CC(=O)Oc1cc(C)c(C)c(C)c1C1(OC(C)=O)C(=O)c2ccccc2C1=O | 238 to 242
COc1cc(C(F)(F)F)cc(Cl)c1-n1nc(C#N)c(SC(C)(F)F)c1N | 79
O=C1c2ccccc2CN1c1ccc(OCCN2CCN(c3nsc4ccccc34)CC2)cc1 | 166 to 167
Cn1nc(-c2cc(C(=O)O)c(Cl)cc2F)c(C=O)c1C(F)(F)F | 163
CC(=O)SC(CC(=O)c1ccccc1Cl)C(=O)O (stereo unspecified) | 115 to 116
CSc1cc(C)nc(SC)c1[N+](=O)[O-] | 172 to 176
CC(=O)Nc1ccc(C2=NN(c3nnc(C)s3)[C@H](C)Cc3cc4c(cc32)OCO4)cc1C | 267 to 269
Nc1nccc(-c2c(-c3ccccc3)nn3ccccc23)n1 | 222 to 223
CNC(=O)N1N=C(c2ccc([N+](=O)[O-])c(C)c2)c2cc3c(cc2CC1C)OCO3 (stereo unspecified) | 221 to 229
CC(C1CC1)C(O)(Cn1nc[nH]c1=S)c1ccc(Cl)cc1 (stereo unspecified) | 137
Cc1ccc(-c2c(C#N)n(C)c(=O)c3ncccc23)cc1 | 268 to 270
O=C(C=Cc1ccc(Br)cc1)N1CCc2c([nH]c3ccccc23)C1c1ccc2c(c1)OCO2 (stereo unspecified) | 188 to 190
CCCN1N=C2C(=Cc3ccccc3C)CSCC2C1c1ccccc1C (stereo unspecified) | 110 to 112
Nc1ccc(C(=O)Nc2ccccc2-c2nnn[nH]2)cc1 | 202 to 204
CC(Cc1c[nH]c2ccccc12)(NC(=O)OC1C2CC3CC(C2)CC1C3)C(=O)NCCc1ccccn1 (stereo unspecified) | 89 to 91
Cc1ccccc1C=CC(=O)c1c(C)n(CCN2CCOCC2)c2ccccc12 | 131 to 135
C=CCOc1ccccc1C1C(C(=O)OCC)=C(C)NC(C#N)=C1C(=O)OCC (stereo unspecified) | 143 to 145
Cc1cc2c(c(C(C)(C)C)c1)OCC(/C=C/C=C/C=C/C(=O)O)=C2 | 256 to 258

SMILES | melting point [°C]
O=C(O)CCCCc1cccc(-c2nc(=O)c3ccccc3s2)n1 | 162
O=C1CN(N=Cc2ncc(-c3ccc(F)cc3)o2)C(=O)N1 | 281 to 282
Cc1c(C(O)c2ccccc2)nc2n1CCc1ccccc1C2OC1CCN(C)CC1 (stereo unspecified) | 85
COc1ccc(N2CCN(c3ccc([N+](=O)[O-])nc3)CC2)cc1 | 186 to 188
COc1ccc(COC(=O)CC(=O)Oc2cc(-c3cn4c(n3)sc3ccccc34)ccc2Cl)cc1 | 113 to 115
CCOC(=O)c1cnn(C)c1C(=O)Nc1ccc2nc(-c3cccnc3)nn2c1 | 217
C=CCNC(=O)CCCC(=O)O | 35.1
COc1nc(C)c(C)cc1NC(=S)N1CCN(c2cc(C)cc(C)c2)CC1 | 192 to 193
Cc1nc(/C=C/c2ccccc2)no1 | 166 to 168
CN1C=C2c3ccccc3Cc3ccccc3C2C1 (stereo unspecified) | 128 to 131
COc1ccc2c(c1)c(Cc1cc(=O)n(C3CCCC3)[nH]1)c(C)n2C(=O)c1ccc(Cl)cc1 | 153 to 155
CN(C)C1CCN(S(=O)(=O)c2ccc(Nc3ccnc4cc(Cl)ccc34)cc2)CC1 | 230 to 231
Cc1ccc(-c2ccccc2C(=O)O)cc1C(=O)NCC12CC3CC(CC(C3)C1)C2 | 85 to 92
COc1ccc(Cc2nnc3c4ccccc4c(Nc4cccc(-c5nn[nH]n5)c4)nn23)cc1 | 292 to 293
O=C(Nc1ccc(F)cc1F)c1cc(-c2ccc(F)cc2F)ccc1O | 233 to 234
CCOc1cc(C(=O)O)cc(N)c1Cc1ccccc1 | 165 to 167
CC(C)NC(=S)N1CCc2[nH]cnc2C1c1ccccc1 (stereo unspecified) | 198
Cc1nccn1-c1nccc2[nH]c(=O)ccc12 | > 310
CCCNC(=O)c1cnc2ccccn2c1=O | 120 to 122
COC(=O)c1ccc(F)c(Br)c1 | 29 to 30
Oc1ccc(-c2ccc(O)cc2C#Cc2ccccc2)c(C#Cc2ccccc2)c1 | 187
O=C(O)CCOc1cccc2cccnc12 | 211 to 213
CNC(=O)[C@@H](NC(=O)[C@@H](CC(=O)OCc1ccccc1)n1ccc(-c2ccc(-c3ccc(C#N)cc3)cc2)c1)C(C)(C)C | 120
Cc1oc(-c2ccccc2)nc1COc1ccc(CON=C(C(=O)O)C(C)C)cc1 | 128 to 129
CCC(O)c1cc([N+](=O)[O-])cc(Br)c1Cl (stereo unspecified) | 110 to 113
CC(C)c1cccc(C(C)C)c1NC(=O)CN1CCN(CCSc2nc3ccccc3s2)CC1 | 170 to 171

SMILES | melting point [°C]
O=C(Cl)c1c(Cl)ccc2c1OCCO2 | 50
Cc1oc(-c2ccccc2)nc1CCOc1ccc(CCC2SC(=O)NC2=O)cc1 (stereo unspecified) | 151 to 152
Cc1cc2occc2c(Cl)n1 | 64.5 to 66
CN(C)C=NC1CCN(Cc2ccccc2)CC1 | 61 to 65
O=c1[nH]c2scc(C3CC3)c2[nH]c1=O | > 250
CC#CCOc1ccc(S(=O)(=O)NC(C(=O)NO)c2ccc(OCCN3CCOCC3)cc2)cc1 (stereo unspecified) | 80 to 86
CCC(O)c1cccc(S(N)(=O)=O)c1 (stereo unspecified) | 218 to 220
N#Cc1cc(I)ccc1N | 85 to 86
CC(C)OCCN1C(=O)N2CCOC2(c2ccccc2)c2cc([N+](=O)[O-])ccc21 (stereo unspecified) | 123 to 124
COc1ccc(C2CCS(=O)(=O)C2)cc1OC1CCCC1 (stereo unspecified) | 89 to 90
CCCSc1ccc(N)c([N+](=O)[O-])c1 | 36.5 to 38
CCCCOCCOc1ccc(-c2ccc(N3CCCC(C)C3)c(C=CC(=O)O)c2)cc1 (stereo unspecified) | 125 to 127
Cc1cc(C(F)(F)C(F)(F)F)ccc1NC(=O)c1cccc(I)c1C(=O)NC(C)C | 195 to 196
CC(C)N(C(=O)CN1C(=O)C(Cc2n[nH]c3ccccc23)C(=O)N(c2ccccc2)c2ccccc21)c1ccc(C(F)(F)F)cc1 (stereo unspecified) | 145 to 148
CCc1nn(C2CN(C(C)C)C2)c2c(=O)[nH]c(-c3cc(S(C)(=O)=O)ccc3OCC(C)C)nc12 | 206 to 209
CN1CCC(c2nn(-c3ccc(N)cc3)c3ccccc23)CC1 | 116 to 118
CN(C)C(=S)Oc1ccc(CCCCN)cc1 | 89 to 93
Cc1ccccc1NC(=O)Nn1c(=O)c(=O)[nH]c2ccccc21 | > 300
CCCCn1c(C)c(C(=O)c2ccccc2C(=O)O)c2ccccc21 | 88 to 92
CS(=O)(=O)c1ccc(-c2cc(C(CCCO[N+](=O)[O-])=NO)nn2-c2ccccc2)cc1 | 128 to 130
O=[N+]([O-])C=C1CN=C(c2ccccc2F)c2cc(I)ccc2N1 | 214 to 216
Fc1cnc2[nH]ccc2c1 | 110
Cc1ccc(S(=O)(=O)OCC(O)Cc2cccc(C(C)(C)C)c2O)cc1 (stereo unspecified) | 98 to 101
